Measurements taken from patent publication US11578343B2, “CAS9 proteins including ligand-dependent inteins” (President and Fellows of Harvard College, priority 2014, dated 2023).

Assays:
Assay type in all cases: cell-based, human
[1] = test system: genomic EGFP locus; experiment: Genomic EGFP disruption in HEK293-GFP stable cells (loss of GFP by flow cytometry); settings: for Loss of GFP expression / nuclease activity, in words: with or without 1 μM 4-HT, FIG. 3c
Procedure: HEK293-GFP stable cells were transfected with the Cas9 expression plasmid, a gRNA (targeting Emerald GFP; Guilinger et al., Nature Biotechnology (2014)), and iRFP670 (transfection control), using Lipofectamine 2000. Twelve hours after transfection, media, either containing 4-HT (1 μM) or without 4-HT, was added.
Five days after transfection, cells were trypsinized and analyzed on a flow cytometer. Cells lacking GFP indicated genome modification. Cas9 variants that induced minimal genome modification in the absence of 4-HT but induce significant genome modification in the presence of 4-HT were deemed small-molecule-regulated variants in this Example.
Additionally, a time course was performed in which incubation with 4-HT was limited to 2, 4, 8, 12 or 24 hours, after which point the media was replaced.
We genetically inserted the 4-HT-dependent intein at each of fifteen positions in Cas9 (Cys80, Ala127, Thr146, Ser219, Thr333, Thr519, Cys574, Thr622, Ser701, Ala728, Thr995, Ser1006, Ser1154, Ser1159, and Ser1274), chosen to distribute the location of the intein across the structural domains of Cas9^23 (FIG. 3b and Example 1). Because intein splicing leaves behind a single Cys residue, the intein was inserted in place of one Cas9 amino acid in each of the 15 candidate constructs. In addition to replacing natural Cys amino acids, we also favored replacing Ala, Ser, or Thr residues to minimize the likelihood that the resulting Cys point mutation resulting from protein splicing would disrupt Cas9 activity. The 15 intein-Cas9 candidates were expressed in HEK293-GFP cells together with a sgRNA that targets the genomic EGFP locus in these cells. Twelve hours post-transfection, cells were treated with or without 1 μM 4-HT. Five days post-transfection, cells were analyzed on a flow cytometer for loss of GFP expression from Cas9-mediated EGFP cleavage and subsequent non-homologous end joining.
Modification of genomic GFP. HEK293-GFP stable cells (GenTarget), which constitutively express Emerald GFP, served as the reporter cell line. Cells were maintained in “full serum media”: Dulbecco's Modified Eagle's Media plus GlutaMax (Life Technologies) with 10% (vol/vol) FBS and penicillin/streptomycin (1×, Amresco). 5×10^4 cells were plated on 48-well collagen-coated Biocoat plates (Becton Dickinson). 16-18 h after plating, cells were transfected with Lipofectamine 2000 (Life Technologies) according to the manufacturer's protocol. Briefly, 1.5 μL of Lipofectamine 2000 was used to transfect 650 ng of total plasmid: 500 ng Cas9 expression plasmid, 125 ng sgRNA expression plasmid, and 25 ng near-infrared iRFP670 expressing plasmid (Addgene plasmid 45457)^26. 12 h after transfection, the media was replaced with full serum media, with or without 4-HT (1 μM, Sigma-Aldrich T176). The media was replaced again 3-4 days after transfection. Five days after transfection, cells were trypsinized and resuspended in full serum media and analyzed on a C6 flow cytometer (Accuri) with a 488-nm laser excitation and 520-nm filter with a 20-nm band pass. Transfections and flow cytometry measurements were performed in triplicate.

[2] = test system: CLTA genomic site; experiment: T7 Endonuclease I Surveyor assay of genomic modification; settings: FIG. 2
Procedure: (§1) The presence of two bands corresponding to smaller DNA fragments (the fragments are approximately the same size for EMX) indicates genomic modification.
(§2) 4-HT (1 μM) was added during transfection for +4-HT samples. 12 hours after transfection the media was replaced. 60 hours after transfection, cells were trypsinized and genomic DNA was isolated using the DNAdvance kit (Agencourt). […] PCR products were purified with a QIAquick PCR Purification Kit (Qiagen) and quantified with a Quant-iT PicoGreen dsDNA Kit (Life Technologies). 200 ng of purified PCR DNA was then combined with 2 μL of NEBuffer 2 (NEB) in a total volume of 19 μL and denatured then re-annealed with thermocycling at 95° C. for 5 min, 95-85° C. at 2° C./s, 85-20° C. at 0.2° C./s. The re-annealed DNA was incubated with 1 μL of T7 Endonuclease I (10 U/μL, NEB) at 37° C. for 15 min. 10 μL of 50% glycerol was added to the T7 Endonuclease reaction and 15 μL was analyzed on a 5% TBE 18-well Criterion PAGE gel (Bio-Rad) electrophoresed for 30 min at 200V and stained with EtBr for 15 min.

[3] = test system: EMX genomic site; experiment: as above; settings: FIG. 2
Procedure: as §1, §2

[4] = test system: VEGF genomic site; experiment: as above; settings: FIG. 2
Procedure: as §1, §2

[5] = +4-HT 2 hrs, then media replaced, Table 2
[6] = +4-HT 4 hrs, then media replaced, Table 2
[7] = +4-HT 8 hrs, then media replaced, Table 2
[8] = +4-HT 12 hrs, then media replaced, Table 2
[9] = +4-HT 24 hrs, then media replaced, Table 2
[10] = +4-HT (1 μM, added 12 h after transfection), five days after transfection, Table 1
[11] = −4-HT, five days after transfection, Table 1

Row | Substance | Cells without GFP (%) [1, 5] | Cells without GFP (%) [1, 6] | Cells without GFP (%) [1, 7] | Cells without GFP (%) [1, 8] | Cells without GFP (%) [1, 9] | Cells without GFP (%) [1, 10] | Loss of GFP expression / nuclease activity, in words ([1]; listed as C574) | Cells without GFP (%) [1, 11] | Cells without GFP (%) ([1]; −4-HT, time course, Table 2) | Genomic modification of target site (T7E1 gel) ([2]; +4-HT (1 μM)) | Genomic modification of target site (T7E1 gel) ([2]; absence of 4-HT) | Genomic modification of target site (T7E1 gel) ([3]; +4-HT (1 μM)) | Genomic modification of target site (T7E1 gel) ([3]; absence of 4-HT) | Genomic modification of target site (T7E1 gel) ([4]; +4-HT (1 μM)) | Genomic modification of target site (T7E1 gel) ([4]; absence of 4-HT) | Loss of GFP expression / nuclease activity, in words ([1]; listed as 5219)
1 | intein(Cys574)-Cas9: Cas9 with 37R3-2 intein replacing Cys574 (SEQ ID NO: 33) | 14.57% | 13.11% | 16.91% | 16.10% | 14.52% | 21.44% | 4-HT-dependent loss of GFP expression and high activity in the presence of 4-HT and low activity in the absence of 4-HT | 5.74% | 2.91% | comparable to modification by wild-type Cas9 | some background cleavage | comparable to modification by wild-type Cas9 | minimal or no modification | comparable to modification by wild-type Cas9 | minimal or no modification | 
2 | intein(Ser219)-Cas9: Cas9 with 37R3-2 intein replacing Ser219 (SEQ ID NO: 30) | 17.25% | 17.07% | 15.12% | 15.28% | 24.39% | 23.98% |  | 6.53% | 3.92% | comparable to modification by wild-type Cas9 | some background cleavage | comparable to modification by wild-type Cas9 | minimal or no modification | comparable to modification by wild-type Cas9 | minimal or no modification | 4-HT-dependent loss of GFP expression and high activity in the presence of 4-HT and low activity in the absence of 4-HT
